The SangsterLogP compilation

SMILES	logP
CCC(CC)C(=O)Nc1cc(OC)ccc1S(N)(=O)=O	2.01
CCC(CC)C(=O)NS(=O)(=O)c1ccc(Cl)cc1N	2.53
CCC(CC)C(=O)NS(=O)(=O)c1ccc(C)cc1N	2.18
CC(C)C(=O)Nc1ccccc1S(N)(=O)=O	0.97
CCC(CC)C(=O)NS(=O)(=O)c1cc([N+](=O)[O-])cc(C(F)(F)F)c1	3.57
CC(C)C(=O)Nc1ccc(C(F)(F)F)cc1S(N)(=O)=O	2.45
CCC(CC)C(=O)Nc1cc(C)ccc1S(N)(=O)=O	2.13
CC(C)C(=O)Nc1cc(Cl)ccc1S(N)(=O)=O	1.87
CC(C)C(=O)NS(=O)(=O)c1cc([N+](=O)[O-])cc(C(F)(F)F)c1	3.1
Cc1ccc(S(=O)(=O)NC(=O)C(C)C)c([N+](=O)[O-])c1	2.17
CC(C)C(=O)NS(=O)(=O)c1ccccc1N	1.17
Cc1ccc(S(N)(=O)=O)c(NC(=O)C(C)C)c1	1.45
CC(C)C(=O)NS(=O)(=O)c1ccccc1[N+](=O)[O-]	1.72
Cc1ccc(S(=O)(=O)NC(=O)C(C)C)c(N)c1	1.65
CCC(CC)C(=O)NS(=O)(=O)c1ccc(OC)cc1N	2.03
CCC(CC)C(=O)NS(=O)(=O)c1ccccc1[N+](=O)[O-]	2.17
CC(C)C(=O)NS(=O)(=O)c1ccc(C(F)(F)F)cc1N	2.56
CCC(CC)C(=O)NS(=O)(=O)c1ccccc1N	1.64
CCC(CC)C(=O)NS(=O)(=O)c1ccc(C)cc1[N+](=O)[O-]	2.67
CCC(CC)C(=O)Nc1cc(Cl)ccc1S(N)(=O)=O	2.55
COc1ccc(S(=O)(=O)NC(=O)C(C)C)c(N)c1	1.58
COc1ccc(S(N)(=O)=O)c(NC(=O)C(C)C)c1	1.37
CCC(CC)C(=O)Nc1cc(C(F)(F)F)ccc1S(N)(=O)=O	3.06
CCC(CC)C(=O)Nc1ccccc1S(N)(=O)=O	1.62
